≈ marks a conversion by molar mass, not a printed value. Where two headings read alike, the source gives them in different places.
Experiments:
[1] = tested on: tuberculosis; details: cited from earlier work
[2] = tested on: mitochondrial protein synthesis (MPS) in H9C2 cells; assay: In vitro assay for MPS inhibition (COX-1 / SDH-A ELISA in H9C2 cells); type: cell-based, rat; details: read-out: IC50 (μM) MPS inhibition
[3] = tested on: Mycobacterium tuberculosis H37Rv; assay: In vitro assay for antimicrobial susceptibility (microplate Alamar blue, MIC); type: cell-based; details: for MIC: Mycobacterium tuberculosis, read-out: MIC (μg/mL) against H37Rv
[4] = Rattus norvegicus, 120 h, H9C2 cells, 5 days incubation
[5] = M. tuberculosis H37Rv, 7H9 broth, Alamar blue

Row | Compound | IC50 ([2]; Rattus norvegicus, H9c2, 120 h) | MIC ([3]; H37RV) | IC50 [2, 4] | MIC [3, 5] | further results
1 | CC(=O)NC[C@H]1CN(c2ccc(N3CCOCC3)c(F)c2)C(=O)O1 [Linezolid] |  |  |  |  | activity in murine models of tuberculosis [1]: only modest activity
2 | O=C(NC[C@H]1CN(c2ccc(N3[C@@H]4CC[C@H]3CSC4)c(F)c2)C(=O)O1)C1CCC1 [OTB-507, N—(((S)-3-(4-((1R,5S)-3-Thia-8-aza-bicyclo[3.2.1]octan-8-yl)-3-fluorophenyl)-2-oxo-oxazolidin-5-yl)methyl)cyclobutanecarboxamide] | 10 µM | 0.7 µg/mL (≈ 1.67 µM) |  |  | 
3 | O=C(NC[C@H]1CN(c2cc(F)c(N3[C@@H]4CC[C@H]3CSC4)c(F)c2)C(=O)O1)C1CC1 [OTB-508, N—(((S)-3-(4-((1R,5S)-3-Thia-8-aza-bicyclo[3.2.1]octan-8-yl)-3,5-difluorophenyl)-2-oxo-oxazolidin-5-yl)methyl)cyclopropanecarboxamide] | 8 µM | 0.2 µg/mL (≈ 0.472 µM) |  |  | 
4 | O=C(NC[C@H]1CN(c2cc(F)c(N3[C@@H]4CC[C@H]3CSC4)c(F)c2)C(=O)O1)C1CCC1 [OTB-509, N—(((S)-3-(4-((1R,5S)-3-Thia-8-aza-bicyclo[3.2.1]octan-8-yl)-3,5-difluorophenyl)-2-oxo-oxazolidin-5-yl)methyl)cyclobutanecarboxamide] | 5 µM | 0.04 µg/mL (≈ 0.0914 µM) |  |  | 
5 | CC(=O)NC[C@H]1CN(c2cc(F)c(N3[C@@H]4CC[C@H]3CSC4)c(F)c2)C(=O)O1 [OTB-510, N—(((S)-3-(4-((1R,5S)-3-Thia-8-aza-bicyclo[3.2.1]octan-8-yl)-3,5-difluorophenyl)-2-oxo-oxazolidin-5-yl)methyl)acetamide] | 3 to 7 µM | 0.03 to 0.22 µg/mL (≈ 0.0755 to 0.554 µM) |  |  | 
6 | COC(=O)NC[C@H]1CN(c2cc(F)c(N3[C@@H]4CC[C@H]3CSC4)c(F)c2)C(=O)O1 [OTB-512, Methyl (((S)-3-(4-((1R,5S)-3-thia-8-azabicyclo[3.2.1]octan-8-yl)-3,5-difluorophenyl)-2-oxo-oxazolidin-5-yl)methyl)carbamate] | 42.5 µM | 0.063 µg/mL (≈ 0.152 µM) |  |  | 
7 | O=C(NC[C@H]1CN(c2cc(F)c(N3[C@@H]4CC[C@H]3C[S+]([O-])C4)c(F)c2)C(=O)O1)C1CCC1 (stereo partly drawn) [OTB-513, N-(((5S)-3-(3,5-Difluoro-4-((1R,5S)-3-oxido-3-thia-8-azabicyclo[3.2.1]octan-8-yl)phenyl)-2-oxo-oxazolidin-5-yl)methyl)cyclobutanecarboxamide] | 13 µM | 1.66 µg/mL (≈ 3.67 µM) |  |  | 
8 | CC(=O)NC[C@H]1CN(c2cc(F)c(N3[C@@H]4CC[C@H]3C[S+]([O-])C4)c(F)c2)C(=O)O1 (stereo partly drawn) [OTB-514, N-(((5S)-3-(3,5-Difluoro-4-((1R,5S)-3-oxido-3-thia-8-azabicyclo[3.2.1]octan-8-yl)phenyl)-2-oxo-oxazolidin-5-yl)methyl) acetamide] | 25 µM | 0.5 µg/mL (≈ 1.21 µM) |  |  | 
9 | O=C1O[C@@H](CO)CN1c1cc(F)c(N2CC3(CSC3)C2)c(F)c1 [OTB-516, (R)-3-(3,5-Difluoro-4-(2-thia-6-azaspiro[3.3]heptan-6-yl)phenyl)-5-(hydroxymethyl) oxazolidin-2-one] |  |  | 15.3 µM | 0.465 µg/mL (≈ 1.36 µM) | 
10 | CS(=O)(=O)NC[C@H]1CN(c2cc(F)c(N3CC4(CSC4)C3)c(F)c2)C(=O)O1 [OTB-516-2A] |  |  | > 100 µM | 0.05 µg/mL (≈ 0.119 µM) | 
11 | CS(=O)(=O)NC[C@H]1CN(c2cc(F)c(N3CC4(C3)C[S+]([O-])C4)c(F)c2)C(=O)O1 [OTB-516-2B] |  |  | > 100 µM | 3 µg/mL (≈ 6.89 µM) | 
12 | CNC(=O)OC[C@H]1CN(c2cc(F)c(N3CC4(CSC4)C3)c(F)c2)C(=O)O1 [OTB-516-4A] |  | 0.03 µg/mL (≈ 0.0751 µM) | > 100 µM |  | 
13 | CNC(=O)OC[C@H]1CN(c2cc(F)c(N3CC4(C3)C[S+]([O-])C4)c(F)c2)C(=O)O1 [OTB-516-4B] |  | 4.7 µg/mL (≈ 11.3 µM) | > 100 µM |  | 
14 | O=C1O[C@@H](Cn2ccnn2)CN1c1cc(F)c(N2C3CCC2C[S+]([O-])C3)c(F)c1 (stereo partly drawn) [OTB-517] | 30 to 55 µM | 1.3 to 2 µg/mL (≈ 3.07 to 4.72 µM) |  |  | 
15 | COC(=O)NC[C@H]1CN(c2ccc(N3C4CCC3C[S+]([O-])C4)c(F)c2)C(=O)O1 (stereo partly drawn) [OTB-518] | 73 µM | 3.5 µg/mL (≈ 8.51 µM) |  |  | 
16 | COC(=O)NC[C@H]1CN(c2cc(F)c(N3C4CCC3C[S+]([O-])C4)c(F)c2)C(=O)O1 (stereo partly drawn) [OTB-519] | 51 µM | 0.9 µg/mL (≈ 2.1 µM) |  |  | 
17 | CC(=O)NC[C@H]1CN(c2cc(F)c(N3CC4(C3)C[S+]([O-])C4)c(F)c2)C(=O)O1 [OTB-520] |  |  | 17 µM | 0.4 µg/mL (≈ 1 µM) | 
18 | O=C1O[C@@H](Cn2ccnn2)CN1c1cc(F)c(N2CC3(C2)C[S+]([O-])C3)c(F)c1 [OTB-522] |  |  | 38 µM | 1 µg/mL (≈ 2.44 µM) | 
19 | CC(=O)NC[C@H]1CN(c2ccc(N3CC4(C3)C[S+]([O-])C4)c(F)c2)C(=O)O1 [OTB-523] |  |  | 4 µM | 0.5 µg/mL (≈ 1.31 µM) | 
20 | (R)-5-((2H-1,2,3-Triazol-2-yl)methyl)-3-(3-fluoro-4-(2-oxa-6-azaspiro[3.3]heptan-6-yl)phenyl)oxazolidin-2-one [OTB-204] |  |  |  |  | IC50 ([2]; H9C2 cells, 5 days incubation): > 100 µM; MIC (μg/mL) against H37Rv [3, 5]: 3.2 to 3.7 µg/mL

Reference: patent publication US11964949B2, “Substituted phenyloxazolidinones for antimicrobial therapy” (priority 2015, dated 2024)
